Laboratory results published in patent US20220235006A1, “PYRIDINE DERIVATIVES AS TMEM16A MODULATORS FOR USE IN THE TREATMENT OF RESPIRATORY CONDITIONS” (TMEM16A LIMITED, priority 2019, published 2022).
Values after ≈ are worked out from the molar mass of the structure shown.

Tests used:
[1] = Kinetic solubility determination (high throughput); assay type: physicochemical; conditions: kinetic from dmso stock, sterile water, 5% DMSO, room temperature
Description: Test compounds (10 μL; 20 mM DMSO solution) were added to sterile water (190 μL) in triplicate and shaken at 300 rpm at room temperature. After 90 min. the test compounds were filtered by centrifuge (5 min. at 3000 rpm) to obtain the aqueous filtrate. Acetonitrile (20 μL) was dispensed into clean 96-well UV/VIS analysis plate and aqueous filtrate (80 μL) added and the plate analysed for test compound concentration using a Molecular Devices SPECTRAmax® plus microplate reader at the following wavelengths: (280, 300, 320, 340, 360, 800 nm). […] The diluted filtrate (80 μL) was then added to acetonitrile (20 μL) and the plate analysed. as previously.

[2] = Log D (pH7.4 shake flask); assay type: physicochemical; conditions: pH 7.4; 1-octanol/phosphate buffer shake flask; read-out: mLogD (pH 7.4)
Description: Phosphate buffer (1 M) was diluted to 20 mM with deionised water and adjusted to pH 7.4 with phosphoric acid or sodium hydroxide. 1-octanol and phosphate buffer (20 mM) were saturated overnight by tumbling. The two phases were separated using a separation funnel. 5 μL of 5 mM compound cassette was added to 495 μL of octanol-saturated buffer and 495 μL buffer saturated octanol in a 96-well plate (top concentration 50 μM). Plate was shaken for 1 h and centrifuged at 25° C. for 5 min. 200 μL of each phase was transferred to a separate plate. The octanol layer was sampled first to avoid cross contamination. 5 μL of the solutions were transferred to 495 μL of quench solution* (max concentration 0.5 μM). In addition, 40 μL of buffer solution was added to 360 μL of quench solvent (max concentration 5 μM). Samples were analysed by LC-MS/MS. Benchmarking against a calibration curve for each compound and with reference to the control compounds sulpride, diclofenac, chlorpromazine and tamoxifen. *Quench solution was a 1:3:1 mixture (v/v/v) of Acetonitrile containing 0.1% formic acid and imipramine/labetalol, 200 nM:Acetonitrile:Water.

[3] = molecular target: T1, human TMEM16A (TMEM16Aabc variant) (Homo sapiens, UniProt Q5XXA6, DEL476-501); assay: Automated whole-cell patch clamp (Qpatch) TMEM16A potentiator assay in recombinant FRT cells; assay type: cell-based; conditions: for activation at 3.33 µM: percentage increase of baseline TMEM16A current, minimum n = 2, read-out: % Potentiation @ 3.33 uM Avg; for EC50: minimum n = 2
T1 sequence (Q5XXA6 with tags, fused parts or gaps isoform Q5XXA6-5 DEL539-564): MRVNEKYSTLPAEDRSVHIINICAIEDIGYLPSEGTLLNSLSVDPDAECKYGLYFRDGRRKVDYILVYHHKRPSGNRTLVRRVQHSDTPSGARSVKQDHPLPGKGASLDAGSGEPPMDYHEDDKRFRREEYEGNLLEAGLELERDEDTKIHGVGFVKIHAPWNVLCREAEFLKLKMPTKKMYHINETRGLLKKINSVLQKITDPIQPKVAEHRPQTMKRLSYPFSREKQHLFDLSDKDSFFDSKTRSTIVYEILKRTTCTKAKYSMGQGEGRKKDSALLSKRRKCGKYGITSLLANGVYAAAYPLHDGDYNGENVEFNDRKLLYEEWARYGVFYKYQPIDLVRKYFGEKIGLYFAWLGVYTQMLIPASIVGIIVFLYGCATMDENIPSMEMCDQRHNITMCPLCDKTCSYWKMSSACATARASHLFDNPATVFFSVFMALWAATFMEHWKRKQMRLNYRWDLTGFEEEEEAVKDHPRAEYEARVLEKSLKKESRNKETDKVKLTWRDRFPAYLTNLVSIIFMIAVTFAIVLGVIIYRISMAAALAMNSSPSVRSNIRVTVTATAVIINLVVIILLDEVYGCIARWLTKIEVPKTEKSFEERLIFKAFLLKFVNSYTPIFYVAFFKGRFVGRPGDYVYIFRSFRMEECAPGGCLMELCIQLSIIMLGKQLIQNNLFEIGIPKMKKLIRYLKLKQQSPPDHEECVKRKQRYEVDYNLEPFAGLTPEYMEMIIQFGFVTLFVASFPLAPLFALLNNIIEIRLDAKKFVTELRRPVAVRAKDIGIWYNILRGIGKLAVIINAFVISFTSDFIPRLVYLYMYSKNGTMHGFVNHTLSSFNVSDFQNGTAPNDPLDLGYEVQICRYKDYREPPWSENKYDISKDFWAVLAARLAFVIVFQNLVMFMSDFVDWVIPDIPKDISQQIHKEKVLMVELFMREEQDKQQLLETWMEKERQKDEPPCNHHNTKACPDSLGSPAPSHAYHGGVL
In short: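 FRT cells stably expressing human TMEM16Aabc, whole-cell automated patch clamp with intracellular Ca2+ buffered for ~20% maximal current (EC20). Held at −70 mV, step to +70 mV/ramp at 0.05 Hz, cumulative compound additions of 5 min each. Peak +70 mV current increase expressed as % potentiation of baseline.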

solubility kinetic at 90 min [1] [µg/mL]	logD [2]	activation at 3.33 µM [3] [%]	EC50 [3] [nM]	SMILES
37 (≈ 92.6 µM)	> 4	240	46	CC(C)(C)NC(=O)c1cc(NC(=O)Cc2cc(O)c(C3(C)CC3)cc2F)ccn1 [Example 8, N-tert-Butyl-4-[[2-[2-fluoro-5-hydroxy-4-(1-methylcyclopropyl)phenyl]acetyl]amino]pyridine-2-carboxamide]
18 (≈ 41.2 µM)	> 4.2	433	15	C=C(C)c1cc(F)c(CC(=O)Nc2ccnc(C(=O)NC3(C(F)(F)F)CC3)c2)cc1O [Example 7.1, 4-[[2-(2-Fluoro-5-hydroxy-4-isopropenyl-phenyl)acetyl]amino]-N-[1-(trifluoromethyl)cyclopropyl]pyridine-2-carboxamide]
6 (≈ 14.6 µM)	> 4	118	26	C#CC(C)(C)NC(=O)c1cc(NC(=O)Cc2cc(O)c(C(C)(C)C)cc2F)ccn1 [Example 1.1]
3 (≈ 6.86 µM)	> 4.5	149	45	C#CC1(NC(=O)c2cc(NC(=O)Cc3cc(O)c(C(C)(C)C)cc3F)ccn2)CCCC1 [Example 1.2]
17 (≈ 40 µM)	> 4	335	43	CC(C)(C#N)NC(=O)c1cc(NC(=O)Cc2cc(O)c(C3(C)CCC3)cc2F)ccn1 [Example 5, N-(1-Cyano-1-methyl-ethyl)-4-[[2-[2-fluoro-5-hydroxy-4-(1-methylcyclobutyl)phenyl]acetyl]amino]pyridine-2-carboxamide]
75 (≈ 154 µM)	3.6	280	18	CC(C)(CO)c1cc(F)c(CC(=O)Nc2ccnc(C(=O)NC3(C(F)(F)F)CC3)c2)c(F)c1O [Example 16.4, 4-[[2-[2,6-Difluoro-3-hydroxy-4-(2-hydroxy-1,1-dimethyl-ethyl)phenyl]acetyl]amino]-N-[1-(trifluoromethyl)cyclopropyl]pyridine-2-carboxamide]
12 (≈ 28.2 µM)	> 4	513	99	CC(C)c1cc(C(C)(C)C)c(O)cc1CC(=O)Nc1ccnc(C(=O)NC(C)(C)C)c1 [Example 6, N-tert-Butyl-4-[[2-(4-tert-butyl-5-hydroxy-2-isopropyl-phenyl)acetyl]amino]pyridine-2-carboxamide]
72 (≈ 156 µM)	3.5	378	88	N#CC1(NC(=O)c2cc(NC(=O)Cc3cc(O)c(C4(C(F)(F)F)CC4)cc3F)ccn2)CC1 [Example 9, N-(1-Cyanocyclopropyl)-4-[[2-[2-fluoro-5-hydroxy-4-[1-(trifluoromethyl)cyclopropyl]phenyl]acetyl]amino]pyridine-2-carboxamide]
296 (≈ 664 µM)	2.6	142	238	CC(C)(CO)c1cc(F)c(CC(=O)Nc2ccnc(C(=O)N[C@H]3CCC[C@@H]3O)c2)cc1O [Example 12.2, 4-[[2-[2-Fluoro-5-hydroxy-4-(2-hydroxy-1,1-dimethyl-ethyl)phenyl]acetyl]amino]-N-[(1S,2S)-2-hydroxycyclopentyl]pyridine-2-carboxamide]
256 (≈ 545 µM)	3.7	250	57	CC(C)(C)c1cc(Cl)c(CC(=O)Nc2ccnc(C(=O)NC3(C(F)(F)F)CC3)c2)cc1O [Example 10.1, 4-[[2-(4-tert-Butyl-2-chloro-5-hydroxy-phenyl)acetyl]amino]-N-[1-(trifluoromethyl)cyclopropyl]pyridine-2-carboxamide]
11 (≈ 25.8 µM)	3.7	252	52	CC(C)(C)c1cc(Cl)c(CC(=O)Nc2ccnc(C(=O)NC3(C#N)CC3)c2)cc1O [Example 10.2, 4-[[2-(4-tert-Butyl-2-chloro-5-hydroxy-phenyl)acetyl]amino]-N-(1-cyanocyclopropyl)pyridine-2-carboxamide]
164 (≈ 350 µM)	3	309	219	CC(C)(C#N)NC(=O)c1cc(NC(=O)Cc2cc(O)c(C(C)(O)C(F)(F)F)cc2F)ccn1 (stereo not shown) [Example 2.7, N-(1-Cyano-1-methyl-ethyl)-4-[[2-[2-fluoro-5-hydroxy-4-(2,2,2-trifluoro-1-hydroxy-1-methyl-ethyl)phenyl]acetyl]amino]pyridine-2-carboxamide]
11 (≈ 26.8 µM)	3.7	148	65	CC(C)(C)c1cc(F)c(CC(=O)Nc2ccnc(C(=O)NC3(C#N)CC3)c2)cc1O [Example 1.5]
